Consider 86 compounds from a melting point compilation (Tetko et al.; mined from patent text by program, amines drawn as free bases though some values may be those of a salt).

Turning to `Nc1ccc(S(=O)(=O)Nc2cccc3[nH]ccc23)cc1`, the melting point stood at 215 °C.
In the case of `CC(C#Cc1ccc(C=Cc2cccnc2)o1)N(O)C(N)=O` (stereo unspecified) it was 166 °C.
In the case of `O=C(O)c1ccc(C#CC2(O)CN3CCC2CC3)cc1` (stereo unspecified) it was 288 to 290 °C; in that of `c1ccc(CN2CC3Cc4ccccc4OC3C2)cc1` (stereo unspecified), 68 to 70 °C; in that of `O=C(NCCO)c1nc2ccccc2[nH]1`, 194 to 195 °C.
In the case of `CCOC(=O)c1cn(C2CC2)c2nc(N3CCCC(n4ccnn4)C3)c(F)cc2c1=O` (stereo unspecified) it was 205 to 206 °C; in that of `O=C(O)c1cn(Cc2ccc(OCc3ccccc3)cc2)nc1-c1ccccc1`, 152 to 153 °C.
Compound `COC(=O)Nc1cc(Cl)nc(NC(=O)OC)n1` came in with a melting point of 156 to 158 °C.
With `CCc1cc(CCc2nc3ccccc3o2)c(=S)[nH]c1C` the figure was 199 to 201 °C; with `CCCCc1nc(CO)c(C(=O)OC)n1Cc1ccc(-c2ccccc2C(=O)OC(C)(C)C)cc1`, 99 °C.
In the case of `O=C(O)[C@H](Cc1ccccc1)NS(=O)(=O)c1ccc(N2CCN(c3ccccc3)CC2)cc1` it was 192 to 193 °C; in that of `COC(=O)c1ccc(Cn2c(=O)c3cc(C(=O)NCc4cccc(OC)c4)sc3n(C)c2=O)cc1C`, 175 to 177 °C.
Compound `O=CN1CCC(c2ccccc2Cc2ccccc2)C1` (stereo unspecified) gave a melting point of 70 to 71 °C.
Compound `CCCCCCCCCCCCCCOc1ccc(C(=O)OC)cc1` showed a melting point of 56 to 58 °C.
In the case of `FC(F)(c1ccccc1)C(F)(F)c1ccc(Br)cc1` it was 80 to 82 °C; in that of `O=C(Nc1ccccc1Cl)N1CCc2cc(S(=O)(=O)N3CCN(c4cccc(Cl)c4)CC3)ccc21`, 205 to 206 °C.
In the case of `Oc1ccc(-c2cccnc2)cc1O` it was 288 to 290 °C; in that of `Cc1ccc(S(=O)(=O)NC(=O)OCCc2ccc(-n3c(C(C)C)nc4c(C)nc(C)cc43)cc2)cc1`, 213 °C.
In the case of `O=C(O)CN1CC(=O)N(Cc2cccc([N+](=O)[O-])c2)C1=O` it was 165 to 166 °C.
Compound `O=C1CN(c2ccccc2)C(=O)N1C(=O)c1ccccc1Oc1ccccc1` registered a melting point of 127 to 128 °C.
For the compound `N#CC(=NO)c1cccc(Oc2ccccc2)c1`, the melting point was in the range of 124 to 125 °C.
With `CCC1(CCCCN2CCN(c3ccccn3)CC2)C(=O)Nc2c(Cl)cc(Cl)cc21` (stereo unspecified) the figure was 144 to 146 °C.
With `CCC(O)(c1c(C(C)C)nn2ccccc12)C(C)C` (stereo unspecified) the figure was 96 to 98 °C; with `CCOC(=O)C(=CNc1cccc(OCC)n1)C(=O)OCC`, 58 to 60 °C.
In the case of `CS(=O)(=O)c1ccc(-c2cccn2-c2ccc(OC(F)(F)F)cc2)cc1` it was 150 to 152 °C; in that of `COc1cc(C=O)cc(OC)c1NC=O`, 159 to 160 °C; in that of `COc1cc(Nc2c(C#N)cnc3cc(-c4cscc4CN4CCOCC4)ccc23)c(Cl)cc1Cl`, 188 to 190 °C.
`CC(C)(C)c1cc(C(C)(C)C)n(Cc2ccc(COc3ccc(CCC(=O)O)c(F)c3)cc2)n1`: the melting point was in the range of 152 to 153 °C.
With `CC1=NC(=O)C(Cc2c[nH]c3ccccc23)N(O)C1=O` (stereo unspecified) the figure was 166 to 168 °C; with `OCCSC(=S)Nc1ccc(Cl)cn1`, 108 °C; with `COc1cc(OCc2cccnc2)ccc1/C=C/c1cc(/C=C/c2ccc3cc[nH]c3c2)n[nH]1`, 90 to 95 °C.
With `Cc1cc(Oc2ccnc(OC(F)F)c2)nc(Oc2ccnc(OC(F)F)c2)c1` the figure was 60 to 65 °C.
With `Cc1cc(CCCCCOc2c(Cl)cc(-c3nnc(C)o3)cc2Cl)on1` the figure was 71 to 72 °C; with `C=CCN1N=C(c2ccc(OC)c(OC)c2)[C@@H]2CCCC[C@@H]2C1=O` (relative stereo), 99 to 101 °C.
The compound `CCn1cc(C(=O)NCc2ccc(Cl)cc2)c(=O)c2cc(CO)sc21` gave a melting point of 169 to 172 °C.
With `CCN=C(N)Nc1cnn(C(C)CCC(=N)NNC(C)=O)n1` (stereo unspecified) the figure was 136 to 138 °C.
`CN(C)c1ccc(NC(=O)N2CCC(Nc3nccc(-c4c(-c5ccc(F)cc5)nc5occn45)n3)CC2)cc1`: the melting point fell in the range of 225 to 227 °C.
With `CC(C)(C)c1cc(NC(=O)Nc2ccc(Oc3ccncc3)cc2)[nH]n1` the figure was 178 to 179 °C; with `COc1ccc(COCn2cc(Cl)cnc2=O)cc1`, 118 °C.
In the case of `COC(=O)N(C)CCc1ccc([N+](=O)[O-])c(CS(=O)(=O)c2ccccc2)c1` it was 42 °C; in that of `CC(C)Sc1sc(-c2nnn(C)n2)c2c1C(=O)CC(C)(C)C2`, 180 to 183 °C.
On to `Cc1c(C)c(N2CCN(c3ccnn3C)CC2)c(C)c2c1OC(C)(C)C2`, for which the melting point is 126 to 128 °C.
With `Cc1ccc(Sc2c(-c3ccc(S(C)(=O)=O)cc3)cnn(-c3cccc(Cl)c3)c2=O)cc1` the figure was 178 °C; with `O=C(Nc1cnc2sc3c(c2c1-c1ccccc1Cl)CCC3)c1ccc(F)cc1F`, 219 to 220 °C; with `CCOc1cc(C(CC(=O)OC)N2C(=O)c3ccccc3C2=O)ccc1OC` (stereo unspecified), 86 to 87 °C.
As for `CCCCCCCCc1ccc(OCC(O)Cn2ccc3cc(C(N)=O)ccc32)cc1` (stereo unspecified), the melting point lay within 118 to 119 °C.
With `CCn1ncc2c3noc(-c4ccc(C)cc4)c3cnc21` the figure was 221 to 222 °C; with `COc1ccc2cc([C@H](C)C(=O)OCCOc3ccc(OCCO[N+](=O)[O-])cc3)ccc2c1`, 67 to 69 °C; with `CCNC(=O)N1CC(Oc2ccc(C(F)(F)F)cc2)C1`, 94 to 96 °C.
For `CNC(=S)n1nc(-c2ccc(Cl)nc2)nc1N`, the melting point is 208 to 211 °C.
Turning to `CCc1ccc2oc(C(=O)Nc3ccc(-c4ccc(S(=O)(=O)NC(C(=O)O)C(C)C)cc4)cc3)c(C)c2c1OCc1ccccc1` (stereo unspecified), the melting point was in the range of 224 to 226 °C.
With `O=C(Cc1ccc(Cl)c(Cl)c1)N1CCNC2CCCCC21` (stereo unspecified) the figure was 119 to 120 °C; with `O=P(CN(O)CP(=O)(OCc1ccccc1)OCc1ccccc1)(OCc1ccccc1)OCc1ccccc1`, 71 to 73 °C.
Turning to `Cc1ccc(S(=O)(=O)N2C(=O)c3cc4c(cc3[C@H]3[C@@H](C=O)[C@H](O[Si](C)(C)C(C)(C)C)[C@H]5OC(C)(C)O[C@H]5[C@@H]32)OCO4)cc1`, the melting point is over 200 °C.
In the case of `NOCc1ccn(C(c2ccccc2)(c2ccccc2)c2ccccc2)n1` it was 105 to 110 °C; in that of `CCCCC(=O)Nc1ccc(Cl)c(-n2nc(CCCC)c(Cc3ccc(-c4ccccc4S(=O)(=O)NC(=O)c4ccccc4Cl)cc3)c2C(=O)O)c1`, over 110 °C; in that of `O=c1[nH]c2ccccc2c(=O)n1Cc1cccnc1`, 241 to 243 °C.
With `CCc1ccc(C(=O)C(=O)O)[nH]1` the figure was 126 to 128 °C; with `O=C(C=Cc1ccc(F)cc1)c1c(F)c(F)c(F)c(F)c1F`, 80 to 84 °C; with `COc1ccc(C2(O)C=CNC(=O)N2)cc1OC1CC2CCC1C2` (stereo unspecified), 167 to 169 °C.
In the case of `CCCCCS(=O)(=O)NC(=O)CCCCc1cc(OCCCC)nn1Cc1ccc(Cl)cc1Cl` it was 91 to 93 °C.
Compound `CCN1CCN(Cc2ccc(-c3cc4ncc(C#N)c(Nc5cc(OC)c(Cl)cc5Cl)c4cc3OC)cc2)CC1` yielded a melting point of 126 to 130 °C.
In the case of `CC(C)c1nc2[nH]c(=O)[nH]c(=O)c2c(-c2ccc(F)cc2)c1/C=C/C=O` it was 255 °C; in that of `CC[C@H](C)[C@@H](CO)NS(=O)(=O)c1ccc(I)cc1`, 118 to 120 °C; in that of `S=C(NCCN(Cc1ccc(Cl)c(Cl)c1)c1ccc(Br)cn1)Nc1ccc(N2CCCCC2)cc1`, 146 to 148 °C.
As to `COc1ccc(CN(C)CCCSc2ccc(NC(=O)c3cccc4c(=O)c5cccc(C)c5[nH]c34)cc2)cc1OC`, the melting point stood at 158 °C.
`O=C1C(c2ccccc2)=CC(=O)c2c(O)c(-c3ccccc3)cc(O)c21` had a melting point of 170 to 173 °C.
With `Oc1ccc2c(c1O)C(=Cc1ccnc3ccccc13)c1ccccc1-2` the figure was 315 °C; with `CC(C)n1nc(-c2c(-c3ccccc3)nc(N)nc2N(C)C)ccc1=O`, 293 to 296 °C; with `O=[N+]([O-])c1ccc2c(c1)Sc1cc(Br)ccc1N2`, over 250 °C.
In the case of `O=C(O)C(Cc1ccc(Cl)cc1Cl)c1c(Cl)cccc1Cl` (stereo unspecified) it was 220 to 222 °C; in that of `CC1CN(c2cc3ccccc3c(=O)[nH]2)CC(C)N1` (stereo unspecified), 208 to 210 °C.
In the case of `CC(=O)c1ccc2c(c1)C(=O)C1(CCOC1=O)S2` (stereo unspecified) it was 139 to 140 °C.
Turning to `NC(=O)c1sc2nc(N3CCC(NCC(O)c4cccnc4)CC3)cc(C(F)(F)F)c2c1N` (stereo unspecified), the melting point is 179 to 181 °C.
On to `CN1C(c2ccc(N3CCCCC3)cc2)=NC(C(F)(F)F)(C(F)(F)F)C1NC(=O)c1ccc(F)cc1` (stereo unspecified), for which the melting point lay within 123 to 124 °C.
In the case of `CCN1CCCC1CNC(=O)CCCOc1ccc2nc3[nH]c(=O)[nH]c3cc2c1` (stereo unspecified) it was 233 to 237 °C.
With `CNS(=O)(=O)c1cscc1CO` the figure was 118 to 119 °C.
In the case of `Cc1cc(SCc2cccc(C(F)(F)F)c2)c(C)cc1N` it was 58 to 60 °C; in that of `COc1ccc(CN(CCN(C)CCCCCCNC(=C[N+](=O)[O-])NCCCOc2cccc(CN3CCCCC3)c2)c2ccccn2)cc1`, 73 °C; in that of `CCCC(=O)C(Cc1ccc(-c2ccccc2-c2nnn[nH]2)cc1)C(=O)OCC` (stereo unspecified), 65 °C.
On to `CCC(C)(C)N=C(Nc1cncnc1)c1ccc(Cl)cc1Cl`, for which the melting point fell in the range of 136 to 137 °C.
With `C=CCNC(=O)N1CC(Oc2ccccn2)C1` the figure was 72 to 76 °C.
With `Nc1ccccc1CSc1ncc(C(F)(F)F)cc1Cl` the figure was 98 to 102 °C; with `Cc1nc(Br)cnc1N`, 51 to 52 °C; with `CN(C)NC(=O)c1cc(S(C)(=O)=O)c(Cl)cc1NCc1ccco1`, 90 to 104 °C.
The compound `COc1cc2c(cc1C)C1(CO2)C(=O)Nc2ccccc21` (stereo unspecified) registered a melting point of over 250 °C.
